Assay [1] concerns HeLa cells. Description: MTT cell viability assay, HeLa. Conditions: 24 h; for inhibition at 100 µM: read-out: %Inhibition at 100 µM, HeLa cell line; for IC50: read-out: IC50 (µM) ± SEM, HeLa Cell Line. The assay is classed as cell-based. On the procedure: (§1) The anti-proliferative activity of the studied compounds was determined against breast (MCF-7) and cervical (HeLa) cancer cells by the MTT cell viability assay as described earlier[44],[45]. BHK-21 cells were used as non-cancerous cells to study the effect of these compounds on normal cells. Briefly, 1 × 10^4 cells/well were seeded in 96-well microtiter plate and placed in an incubator (Heracell™ VIOS 160i, Thermo-Fisher Scientific) set for 5% CO2 at 37 °C. The stock solutions of compounds were prepared at 10 mM concentration in DMSO. Initial working solutions were prepared in cell culture medium at 1 mM concentration. […] After 24 h, medium in each well was aspirated and cells were treated for 4 h with serum free medium containing 0.2 mg/mL MTT reagent. The solubilizing reagent (10% acidified sodium dodecyl sulfate in propanol in a 1:1 ratio) was added to solubilize formazan crystals. Plates were kept at 37 °C for 30 min and then placed on a gyratory shaker for few min for complete solubilization of formazan crystals. The optical density was measured at 570 nm by microplate reader and IC50 values were calculated from three independent experiments as previously reported.
(Formazan colour is commonly taken as a measure of viable cells.)

Assay [2] has as its system MCF-7 cells. Description: MTT cell viability assay, MCF-7. Format: cell-based. The settings on record: for inhibition at 100 µM: MCF7, 100 µM, read-out: %Inhibition at 100 µM, MCF-7 cell line; for IC50: read-out: IC50 (µM) ± SEM, MCF-7 cell line. On the procedure: as §1
Assay [3] concerns BHK-21 cells. As to the kind of experiment: MTT cell viability assay, non-cancerous BHK-21. The assay is classed as cell-based, Baby Hamster. The settings on record: 24 h, read-out: IC50 (µM) ± SEM, BHK-21 cell line. On the procedure: as §1
Assay [4] has as its system HeLa cells. Description: Alkaline comet assay. The assay is classed as cell-based. The settings on record: 5j 6.4 µM 24 h. On the procedure:
Comet assay is a sensitive method to determine DNA damage which was performed after some modifications in a published protocol. […] The cervical cancer (HeLa) cells were treated with IC50 value of potent compound 5j for 24 h. Cells were harvested, collected and centrifuged to obtain a pellet. Pelleted cells were re-suspended in media. Untreated cells were used as control cells. For the positive control, 2 × 10^4 cells were treated with 20 µM of freshly prepared hydrogen peroxide for 30 min. Slides were prepared by coating with 1% normal melting point agarose (NMPA) on one side and then dried. Samples (2 × 10^4 cells/sample) were re-suspended in 1 mL of PBS. In a tube, 0.4 mL cell suspension was mixed with 1.2 mL of 0.9% low melting point agarose (LMPA) and mixed thoroughly by pipetting. A cell suspension of 65 µL was laid on coated slide and evenly distributed by placing a coverslip over it. Slides were placed at − 20 °C for 10 min. Then the slides were placed at 4 °C in the dark in a lysis buffer of 100 mM EDTA, 10 mM Trizma base, 2.5 M sodium chloride, 10% DMSO and 1% Triton X-100 in distilled water with a pH of 10. After an overnight incubation, slides were washed with chilled distilled water. These slides were then placed in electrophoresis chamber (Wealtec, USA) having chilled (4 °C) alkali unwinding solution (300 mM sodium hydroxide and 1 mM EDTA in distilled water). Electrophoresis was carried out at an adjusted voltage (between 0.7 and 1.0 V/cm) for 35 min in an electrophoresis tank. Slides were then immersed in neutralization solution (0.4 M Trizma base in 800 mL water, pH 7.5) for 10 min in dark. Propidium iodide (20 µL of 0.01 mg/mL) was used as fluorescent dye to stain DNA. Slides were placed in dark at room temperature. After 10 min, images were captured using a fluorescence microscope (Nikon ECLIPSE Ni–U, Japan) at an excitation/emission wavelength of 493/632 nm. Microscopic images were analyzed using ImageJ (ij152-win-java8, National Institutes of Health, Bethesda, USA) and OpenComet (OpenComet_imagej_v1.3.1, USA) where the DNA content in the head and tail of the comets were automatically measured by the software. Results of three independent experiments were expressed as tail length ([…]), %DNA in comet tail and comet tail moment.

Where two headings read alike, the source gives them in different places.

As usually defined, the inhibition is the change of the read-out against control, counted positive when it falls. As to `N#CC1=C(N)Nc2n[nH]cc2C12C(=O)Nc1ccccc12` (centres unmarked) [4a], the inhibition at 100 µM in assay [1] (Homo sapiens) was 34.5%; in assay [2] (Homo sapiens, 24 h), 28.2%.

As to `Cc1ccc2c(c1)C1(C(=O)N2)C(C#N)=C(N)Nc2n[nH]cc21` (centres unmarked) [4b], the inhibition at 100 µM in assay [1] (Homo sapiens) was determined as 45.9%; in assay [2] (Homo sapiens, 24 h) it was 1.86%.

The %Inhibition is the relative decrease from the control value, in per cent. Lower therefore signals a response near the control. As usually defined, the IC50 is the concentration that inhibits the measured activity by half. Take `N#CC1=C(N)Nc2n[nH]cc2C12C(=O)Nc1ccc(F)cc12` (centres unmarked) [4c]: in assay [1], the “%Inhibition at 100 µM, HeLa cell line” value worked out at 57.80%. In addition, the inhibition at 100 µM in assay [1] (Homo sapiens) is > 50%; in assay [2] (Homo sapiens, 24 h), 26.8%. Moreover, the figures for the half-maximal inhibitory concentration (IC50) in assay [1] (Homo sapiens) and in assay [3] (Mesocricetus auratus) were 90.2 ± 2.18 µM and 49.2 ± 2.01 µM, respectively.

Regarding `N#CC1=C(N)Nc2n[nH]cc2C12C(=O)Nc1ccc(Cl)cc12` (centres unmarked) [4d], the “%Inhibition at 100 µM, HeLa cell line” value in assay [1] was determined as 99.45%. Further, the half-inhibitory concentration (IC50) was determined as 51.6 ± 0.99 µM in assay [1] (Homo sapiens) and 246 ± 6.71 µM in assay [3] (Mesocricetus auratus). In addition, the inhibition at 100 µM in assay [2] (Homo sapiens, 24 h) was found to be 18.9%.

On to `N#CC1=C(N)Nc2n[nH]cc2C12C(=O)Nc1ccc(Br)cc12` (centres unmarked) [4e], for which the inhibition at 100 µM in assay [1] (Homo sapiens) was determined as 24.9%; in assay [2] (Homo sapiens, 24 h) it was 7.24%.

As to `N#CC1=C(N)Nc2n[nH]cc2C12C(=O)Nc1ccc([N+](=O)[O-])cc12` (centres unmarked) [4f], the inhibition at 100 µM in assay [1] (Homo sapiens) amounted to 26.2%; in assay [2] (Homo sapiens, 24 h) it was 5.23%.

Consider `N#CC1=C(N)Nc2n[nH]cc2C12C(=O)Nc1ccc(OC(F)(F)F)cc12` (centres unmarked) [4g], for which the inhibition at 100 µM in assay [1] (Homo sapiens) was 38.6%; in assay [2] (Homo sapiens, 24 h) it was 15.2%.

For `Cc1[nH]nc2c1C1(C(=O)Nc3ccccc31)C(C#N)=C(N)N2` (centres unmarked) [4h], the inhibition at 100 µM was determined as 5.08% in assay [1] (Homo sapiens) and 2.38% in assay [2] (Homo sapiens, 24 h).

Regarding `Cc1ccc2c(c1)C1(C(=O)N2)C(C#N)=C(N)Nc2n[nH]c(C)c21` (centres unmarked) [4i], the inhibition at 100 µM stood at 39.7% in assay [1] (Homo sapiens) and 1.42% in assay [2] (Homo sapiens, 24 h).

Take `Cc1[nH]nc2c1C1(C(=O)Nc3ccc(F)cc31)C(C#N)=C(N)N2` (centres unmarked) [4j]: the inhibition at 100 µM in assay [1] (Homo sapiens) worked out at 5.68%; in assay [2] (Homo sapiens, 24 h), 2.22%.

Turning to `Cc1[nH]nc2c1C1(C(=O)Nc3ccc(Cl)cc31)C(C#N)=C(N)N2` (centres unmarked) [4k], the inhibition at 100 µM in assay [1] (Homo sapiens) turned out to be 3.84%; in assay [2] (Homo sapiens, 24 h) it was 11.9%.

Turning to `Cc1[nH]nc2c1C1(C(=O)Nc3ccc(Br)cc31)C(C#N)=C(N)N2` (centres unmarked) [4l], the inhibition at 100 µM worked out at 39.3% in assay [1] (Homo sapiens) and 1.78% in assay [2] (Homo sapiens, 24 h).

`Cc1[nH]nc2c1C1(C(=O)Nc3ccc([N+](=O)[O-])cc31)C(C#N)=C(N)N2` (centres unmarked) [4m]: the inhibition at 100 µM was 22.7% in assay [1] (Homo sapiens) and 23.3% in assay [2] (Homo sapiens, 24 h).

Consider `Cc1[nH]nc2c1C1(C(=O)Nc3ccc(OC(F)(F)F)cc31)C(C#N)=C(N)N2` (centres unmarked) [4n], for which the inhibition at 100 µM in assay [1] (Homo sapiens) amounted to 27.8%; in assay [2] (Homo sapiens, 24 h) it was 0.15%.

Regarding `Nc1nc2ccccc2c2c1c(N)nc1n[nH]cc12` [5a], the inhibition at 100 µM in assay [1] (Homo sapiens) was 97.9%; in assay [2] (Homo sapiens, 24 h), 46.4%. The values for the concentration for half-maximal inhibition (IC50) in assay [1] (Homo sapiens) and in assay [3] (Mesocricetus auratus) were 58.91 ± 0.39 µM and 177 ± 6.11 µM, respectively.

On to `Cc1ccc2nc(N)c3c(N)nc4n[nH]cc4c3c2c1` [5b], for which the inhibition at 100 µM in assay [1] (Homo sapiens) was found to be 98.4%; in assay [2] (Homo sapiens, 24 h) it was 96.4%. The IC50 in assay [1] (Homo sapiens) was 32.1 ± 1.14 µM; in assay [2] (Homo sapiens, MCF7, 24 h), 41.4 ± 0.47 µM; in assay [3] (Mesocricetus auratus), 126 ± 1.63 µM.

For the molecule `Nc1nc2ccc(F)cc2c2c1c(N)nc1n[nH]cc12` [5c], the inhibition at 100 µM in assay [1] (Homo sapiens) worked out at 69.2%; in assay [2] (Homo sapiens, 24 h) it was 4.12%. Besides, the IC50 in assay [1] (Homo sapiens) worked out at 10.3 ± 0.51 µM; in assay [3] (Mesocricetus auratus), 42.4 ± 1.95 µM.

As to `Nc1nc2ccc(Cl)cc2c2c1c(N)nc1n[nH]cc12` [5d], the inhibition at 100 µM worked out at 71.4% in assay [1] (Homo sapiens) and 27.3% in assay [2] (Homo sapiens, 24 h). For the same molecule, the values for the IC50 in assay [1] (Homo sapiens) and in assay [3] (Mesocricetus auratus) were 40.7 ± 1.42 µM and 166.8 ± 0.95 µM, respectively.

Turning to `Nc1nc2ccc(Br)cc2c2c1c(N)nc1n[nH]cc12` [5e], the inhibition at 100 µM in assay [1] (Homo sapiens) stood at 98.3%; in assay [2] (Homo sapiens, 24 h) it was 96.8%. The concentration for half-maximal inhibition (IC50) in assay [1] (Homo sapiens) stood at 30.2 ± 1.15 µM; in assay [2] (Homo sapiens, MCF7, 24 h), 18.6 ± 0.29 µM; in assay [3] (Mesocricetus auratus) it was 84.1 ± 3.31 µM.

Take `Nc1nc2ccc([N+](=O)[O-])cc2c2c1c(N)nc1n[nH]cc12` [5f]: the half-maximal inhibitory concentration (IC50) in assay [1] (Homo sapiens) was 69.1 ± 0.99 µM; in assay [3] (Mesocricetus auratus), 101 ± 2.61 µM. Also, the inhibition at 100 µM in assay [2] (Homo sapiens, 24 h) stood at 9.54%.

For `Nc1nc2ccc(OC(F)(F)F)cc2c2c1c(N)nc1n[nH]cc12` [5g], the inhibition at 100 µM worked out at 61.3% in assay [1] (Homo sapiens) and 31.4% in assay [2] (Homo sapiens, 24 h).

On to `Cc1[nH]nc2nc(N)c3c(N)nc4ccccc4c3c12` [5h], for which the inhibition at 100 µM in assay [1] (Homo sapiens) is 93.6%; in assay [2] (Homo sapiens, 24 h) it was 37.8%. In addition, the IC50 came to 14.4 ± 1.21 µM in assay [1] (Homo sapiens) and 31.4 ± 1.33 µM in assay [3] (Mesocricetus auratus).

Take `Cc1ccc2nc(N)c3c(N)nc4n[nH]c(C)c4c3c2c1` [5i]: the inhibition at 100 µM in assay [1] (Homo sapiens) worked out at 63.5%; in assay [2] (Homo sapiens, 24 h) it was 58.2%. Moreover, the half-maximal inhibitory concentration (IC50) was 61.9 ± 1.76 µM in assay [1] (Homo sapiens); 54.7 ± 0.63 µM in assay [2] (Homo sapiens, MCF7, 24 h); 134 ± 1.71 µM in assay [3] (Mesocricetus auratus).

Take `Cc1[nH]nc2nc(N)c3c(N)nc4ccc(Br)cc4c3c12` [5l]: the inhibition at 100 µM in assay [1] (Homo sapiens) is 81.6%; in assay [2] (Homo sapiens, 24 h), 28.2%. Further, the IC50 in assay [1] (Homo sapiens) was found to be 38.5 ± 0.63 µM; in assay [3] (Mesocricetus auratus) it was 152 ± 2.61 µM.

With `Cc1[nH]nc2nc(N)c3c(N)nc4ccc([N+](=O)[O-])cc4c3c12` [5m], the inhibition at 100 µM in assay [1] (Homo sapiens) came to 44.9%; in assay [2] (Homo sapiens, 24 h), 10.3%.

For `Cc1[nH]nc2nc(N)c3c(N)nc4ccc(OC(F)(F)F)cc4c3c12` [5n], the inhibition at 100 µM in assay [1] (Homo sapiens) was determined as 63.2%; in assay [2] (Homo sapiens, 24 h), 10.5%. In addition, the IC50 came to 32.7 ± 2.16 µM in assay [1] (Homo sapiens) and 46.6 ± 1.03 µM in assay [3] (Mesocricetus auratus).

Regarding `N.N.[Cl][Pt][Cl]` [Cisplatin, reference compound], in assay [1], the “%Inhibition at 100 µM, HeLa cell line” value turned out to be 98.63%. The IC50 was found to be 11.3 ± 0.78 µM in assay [1], 6.22 ± 0.72 µM in assay [2] (24 h) and 24.7 ± 0.37 µM in assay [3]. For the same molecule, the “%Inhibition at 100 µM, MCF-7 cell line” value in assay [2] (100 µM, 24 h) was 73.12%.

Take `OO` [H2O2, Hydrogen Peroxide, reference compound]: the “%DNA in tail ± SD” value in assay [4] is reported as 55.11 ± 0.68%. In assay [4] (H2O2 20 µM 30 min (positive control)), the “Tail length ± SD” value came to 84.14 ± 3.43 µM.

(Values after PMC10067956, “Pyrazole derivatives of pyridine and naphthyridine as proapoptotic agents in cervical and breast cancer cells” (Scientific Reports, 2023).)
